In the supplement of paper PMC10307832:

How the values were obtained:
Test in all cases: relative viability (nuclei count vs DMSO), 5 days (fraction); higher = more cells survive
[1] = compound: CC(C)(C)c1nc(-c2cccc(NS(=O)(=O)c3c(F)cccc3F)c2F)c(-c2ccnc(N)n2)s1 [Dabrafenib] + C[C@@H](Oc1cc(-c2cnn(C3CCNCC3)c2)cnc1N)c1c(Cl)ccc(F)c1Cl [Crizotinib] (partner 1 µM)
In short: (§1)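 Relative viability was taken as the ratio of nuclei in treated wells to nuclei in vehicle wells. Lung cancer cell lines in 1536-well plates received compounds by pin tool one day after seeding, either one drug alone or a fixed anchor-drug dose plus five library-drug doses (not always all listed) in √10 steps. Nuclei were counted on 4× images after 5 days of treatment, and values are medians of duplicate plates.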

[2] = compound: NC(=O)c1ccc(N(C(N)=O)c2c(F)cccc2F)nc1-c1ccc(F)cc1F [VX-702] + COc1cccc2cc(-c3nc([C@H]4CC[C@H](C(=O)O)CC4)n4ncnc(N)c34)[nH]c12 [OSI-027] (partner 0.5 µM)
In short: as §1

[3] = compound: CC(C)(C)c1nc(-c2cccc(NS(=O)(=O)c3c(F)cccc3F)c2F)c(-c2ccnc(N)n2)s1 [Dabrafenib] + Nc1ncn([C@H]2C[C@H](O)[C@@H](CO)O2)c(=O)n1 [Decitabine] (partner 2 µM)
In short: as §1

[4] = compound: CC(C)(C)c1nc(-c2cccc(NS(=O)(=O)c3c(F)cccc3F)c2F)c(-c2ccnc(N)n2)s1 [Dabrafenib] + COc1cccc2cc(-c3nc([C@H]4CC[C@H](C(=O)O)CC4)n4ncnc(N)c34)[nH]c12 [OSI-027] (partner 0.5 µM)
In short: as §1

HCC-78 gave a relative viability ([1]; first compound 0.009487 µM) of 0.403, a relative viability ([1]; first compound 0.03 µM) of 0.278 and a relative viability ([1]; first compound 0.09487 µM) of 0.329. The relative viability ([1]; first compound 0.3 µM) was 0.362, the relative viability ([2]; first compound 0.02 µM) was 0.364 and the relative viability ([2]; first compound 0.2 µM) was 0.358. It also gave a relative viability ([2]; first compound 0.6325 µM) of 0.311, a relative viability ([2]; first compound 2 µM) of 0.32 and a relative viability ([3]; first compound 0.009487 µM) of 0.681. It also gave a relative viability ([3]; first compound 0.03 µM) of 0.55, a relative viability ([3]; first compound 0.09487 µM) of 0.625 and a relative viability ([3]; first compound 0.3 µM) of 0.474. It also gave a relative viability ([4]; first compound 0.009487 µM) of 0.36, a relative viability ([4]; first compound 0.03 µM) of 0.334 and a relative viability ([4]; first compound 0.09487 µM) of 0.354. The relative viability ([4]; first compound 0.3 µM) was 0.38.

Cell Line NCI-H647 has a relative viability ([1]; first compound 0.009487 µM) of 1.05, a relative viability ([1]; first compound 0.03 µM) of 1.04 and a relative viability ([1]; first compound 0.09487 µM) of 0.976. The relative viability ([1]; first compound 0.3 µM) was 1.04, the relative viability ([2]; first compound 0.02 µM) was 0.719 and the relative viability ([2]; first compound 0.2 µM) was 0.997. For the same cell line, the relative viability ([2]; first compound 0.6325 µM) was 0.709, the relative viability ([2]; first compound 2 µM) was 0.662 and the relative viability ([3]; first compound 0.003 µM) was 0.445. For the same cell line, the relative viability ([3]; first compound 0.009487 µM) was 0.366, the relative viability ([3]; first compound 0.03 µM) was 0.308 and the relative viability ([3]; first compound 0.09487 µM) was 0.358. For the same cell line, the relative viability ([3]; first compound 0.3 µM) was 0.234, the relative viability ([4]; first compound 0.003 µM) was 0.325 and the relative viability ([4]; first compound 0.009487 µM) was 0.704. The relative viability ([4]; first compound 0.03 µM) was 0.561, the relative viability ([4]; first compound 0.09487 µM) was 0.582 and the relative viability ([4]; first compound 0.3 µM) was 0.476.

Work on NCI-H1666 yielded a relative viability ([1]; first compound 0.003 µM) of 0.988, a relative viability ([1]; first compound 0.03 µM) of 1.09 and a relative viability ([1]; first compound 0.09487 µM) of 0.87. For the same cell line, the relative viability ([1]; first compound 0.3 µM) was 1.17, the relative viability ([2]; first compound 0.02 µM) was 0.937 and the relative viability ([2]; first compound 0.6325 µM) was 0.789. For the same cell line, the relative viability ([2]; first compound 2 µM) was 0.635, the relative viability ([3]; first compound 0.003 µM) was 0.69 and the relative viability ([3]; first compound 0.009487 µM) was 0.813. The relative viability ([3]; first compound 0.03 µM) was 0.789, the relative viability ([3]; first compound 0.09487 µM) was 0.674 and the relative viability ([3]; first compound 0.3 µM) was 0.751. It also gave a relative viability ([4]; first compound 0.003 µM) of 0.805, a relative viability ([4]; first compound 0.009487 µM) of 0.869 and a relative viability ([4]; first compound 0.03 µM) of 0.833. The relative viability ([4]; first compound 0.09487 µM) was 0.797 and the relative viability ([4]; first compound 0.3 µM) was 0.968.

For NCI-H3122, the relative viability ([1]; first compound 0.003 µM) was 0.31, the relative viability ([1]; first compound 0.009487 µM) was 0.272 and the relative viability ([1]; first compound 0.03 µM) was 0.274. It also gave a relative viability ([1]; first compound 0.09487 µM) of 0.259, a relative viability ([1]; first compound 0.3 µM) of 0.361 and a relative viability ([2]; first compound 0.02 µM) of 0.922. It also gave a relative viability ([2]; first compound 0.2 µM) of 0.874, a relative viability ([2]; first compound 0.6325 µM) of 0.917 and a relative viability ([2]; first compound 2 µM) of 1.05. It also gave a relative viability ([3]; first compound 0.003 µM) of 0.567, a relative viability ([3]; first compound 0.009487 µM) of 0.404 and a relative viability ([3]; first compound 0.03 µM) of 0.397. It also gave a relative viability ([3]; first compound 0.09487 µM) of 0.429, a relative viability ([3]; first compound 0.3 µM) of 0.373 and a relative viability ([4]; first compound 0.003 µM) of 0.919. It also gave a relative viability ([4]; first compound 0.009487 µM) of 0.967, a relative viability ([4]; first compound 0.03 µM) of 1.07 and a relative viability ([4]; first compound 0.09487 µM) of 0.925. For the same cell line, the relative viability ([4]; first compound 0.3 µM) was 1.06.

NCI-H520 was tested, and the relative viability ([1]; first compound 0.003 µM) was 0.756, the relative viability ([1]; first compound 0.009487 µM) was 0.752 and the relative viability ([1]; first compound 0.03 µM) was 0.732. For the same cell line, the relative viability ([1]; first compound 0.09487 µM) was 0.582, the relative viability ([1]; first compound 0.3 µM) was 0.664 and the relative viability ([2]; first compound 0.02 µM) was 0.321. The relative viability ([2]; first compound 0.2 µM) was 0.287, the relative viability ([2]; first compound 0.6325 µM) was 0.268 and the relative viability ([2]; first compound 2 µM) was 0.23. It also gave a relative viability ([3]; first compound 0.003 µM) of 0.583, a relative viability ([3]; first compound 0.009487 µM) of 0.515 and a relative viability ([3]; first compound 0.03 µM) of 0.392. It also gave a relative viability ([3]; first compound 0.09487 µM) of 0.459, a relative viability ([3]; first compound 0.3 µM) of 0.342 and a relative viability ([4]; first compound 0.003 µM) of 0.272. The relative viability ([4]; first compound 0.009487 µM) was 0.348, the relative viability ([4]; first compound 0.03 µM) was 0.188 and the relative viability ([4]; first compound 0.09487 µM) was 0.324. The relative viability ([4]; first compound 0.3 µM) was 0.278.
